Source: US11806342B2, “Diiodohydroxyquinoline for the treatment of clostridium difficile infection” (Purdue Research Foundation, priority 2019, dated 2023)
Values after ≈ are worked out from the molar mass of the structure shown. Where two headings read alike, the source gives them in different places.

Experiments:
[1] = test system: C. difficile I6; test: MIC and MBC, broth microdilution; assay type: cell-based, Clostridium difficile; details: Clostridioides difficile, C. difficile I6
Method: (§1) Antibacterial activity of Diiodohydroxyquinoline against a wide panel of Clostridium difficile strains. […] MIC50 and MIC90 are the minimum concentration of each agent that inhibited growth of 50% and 90% of the tested isolates, respectively. The minimum bactericidal concentration (MBC) of these drugs was tested by plating 5 μL from wells with no growth onto BHIS agar plates. The MBC was categorized as the lowest concentration that reduced bacterial growth by 99.9% MIC50 and MIC90 are the minimum concentration of each agent that inhibited the growth of 50% and 90% of the tested isolates, respectively. The minimum bactericidal concentration (MBC) of these drugs was tested by plating 5 μL from wells with no growth onto BHIS agar plates. The MBC was categorized as the lowest concentration that reduced bacterial growth by 99.9% [29-31].

[2] = test system: C. difficile P6; test: MIC and MBC, broth microdilution; assay type: cell-based, Clostridium difficile; details: Clostridioides difficile, C. difficile P6
Method: as §1

[3] = test system: C. difficile ATCC BAA-1870; test: Time kill kinetics assay; assay type: cell-based, Clostridium difficile; details: C. difficile ATCC BAA-1870, 5×MIC, 37° C.
Method: (§2) Time kill kinetics assay. In order to examine the killing kinetics of DIHQ, a time kill kinetics assay was performed against Clostridium difficile ATCC BAA 1870 and C. difficile NR-49277 as described previously. […] Aliquots were collected from each treatment after 0, 4, 6, 8, 12, and 24 hours of incubation at 37° C. and subsequently serially diluted and plated for viable CFU/mL determination.

[4] = test system: C. difficile NR-49277; test: Time kill kinetics assay; assay type: cell-based, Clostridium difficile; details: C. difficile NR-49277, 5×MIC, 37° C.
Method: as §2

[5] = test system: C. difficile ATCC 43255; test: Checkerboard assay, DIHQ with metronidazole or vancomycin; assay type: cell-based, Clostridium difficile
Method: (§3) The fractional inhibitory concentration index (ΣFIC) was calculated for each interaction. Interactions where the ΣFIC index was ≤0.5 were categorized as synergistic (SYN).

[6] = test system: C. difficile ATCC BAA-1870; test: as above; assay type: cell-based, Clostridium difficile
Method: as §3

[7] = test system: C. difficile I9; test: as above; assay type: cell-based, Clostridium difficile
Method: as §3

[8] = test system: C. difficile ATCC 43255; test: Toxin A and B production inhibition, ELISA; assay type: cell-based, Clostridium difficile; details: 8 hours
Method: (§4) To investigate DIHQs toxin production inhibitory activity, toxin A and toxin B levels were measured as described previously. […] An aliquot from each tube was diluted and plated on BHIS agar plates and incubated anaerobically at 37° C. for 24 hours to detect the bacterial count. The total concentration of C. difficile toxin A and B was measured in the supernatant of each tube using enzyme linked immunosorbent assay (ELISA) kit (tgc BIOMICS, Dunwoody, GA) following the manufacturer's instructions. The (OD450-OD620) values, corresponding to the toxin concentration, were measured for DIHQ and control drugs.

[9] = test system: C. difficile ATCC BAA-1870; test: Toxin A and B production inhibition, ELISA; assay type: cell-based, Clostridium difficile; details: 8 hours
Method: as §4

[10] = test system: C. difficile NR-49277; test: Toxin A and B production inhibition, ELISA; assay type: cell-based, Clostridium difficile; details: 8 hours
Method: as §4

[11] = test system: Bacteroides dorei HM-717; test: MIC against normal gut microflora, broth microdilution; assay type: cell-based; details: Phocaeicola dorei, HM717; Bacteroides dorei HM-717; read-out: MIC
Method: (§5) In vitro antimicrobial evaluation of diiodohydroxyquinoline against normal microflora. The broth microdilution assay was utilized to determine the MICs of DIHQ and control antibiotics against commensal organisms that compose he human gut microflora, as described elsewhere. A bacterial solution equivalent to 0.5 McFarland standard was prepared and diluted in BHIS broth (for Bifidobacterium and Bacteroides) or in MRS broth (for Lactobacillus) to achieve a bacterial concentration of about 5×10^5 CFU/mL. Then, drugs were added and serially diluted along the plates.

[12] = test system: Bacteroides dorei HM-718; test: as above; assay type: cell-based; details: Phocaeicola dorei, HM718; Bacteroides dorei HM-718; read-out: MIC
Method: as §5

[13] = test system: Bacteroides dorei HM-719; test: as above; assay type: cell-based; details: Phocaeicola dorei, HM719; Bacteroides dorei HM-719; read-out: MIC
Method: as §5

[14] = test system: Bacteroides fragilis HM-709; test: as above; assay type: cell-based; details: HM709; Bacteroides fragilis HM-709; read-out: MIC
Method: as §5

[15] = test system: Bacteroides fragilis HM-710; test: as above; assay type: cell-based; details: HM710; Bacteroides fragilis HM-710; read-out: MIC
Method: as §5

[16] = test system: Bacteroides fragilis HM-711; test: as above; assay type: cell-based; details: HM711; Bacteroides fragilis HM-711; read-out: MIC
Method: as §5

[17] = test system: Bacteroides fragilis HM-714; test: as above; assay type: cell-based; details: HM714; Bacteroides fragilis HM-714; read-out: MIC
Method: as §5

[18] = test system: Bifidobacterium adolescentis HM-633; test: as above; assay type: cell-based; details: HM633; Bifidobacterium adolescentis HM-633; read-out: MIC
Method: as §5

[19] = test system: Bifidobacterium breve HM-1120; test: as above; assay type: cell-based; details: HM1120; Bifidobacterium breve HM-1120; read-out: MIC
Method: as §5

[20] = test system: Bifidobacterium breve HM-411; test: as above; assay type: cell-based; details: HM411; Bifidobacterium breve HM-411; read-out: MIC
Method: as §5

[21] = test system: Bifidobacterium longum HM-845; test: as above; assay type: cell-based; details: HM845; Bifidobacterium longum HM-845; read-out: MIC
Method: as §5

[22] = test system: Bifidobacterium longum HM-847; test: as above; assay type: cell-based; details: HM847; Bifidobacterium longum HM-847; read-out: MIC
Method: as §5

[23] = test system: Lactobacillus casei ATCC 334; test: as above; assay type: cell-based; details: Lacticaseibacillus casei, ATCC334; Lactobacillus casei ATCC 334; read-out: MIC
Method: as §5

[24] = test system: Lactobacillus reuteri HM-102; test: as above; assay type: cell-based; details: Lactobacillus reuteri HM-102
Method: as §5

[25] = DIHQ with metronidazole, C. difficile ATCC 43255
[26] = DIHQ with vancomycin, C. difficile ATCC 43255
[27] = DIHQ with metronidazole, C. difficile ATCC BAA-1870
[28] = DIHQ with vancomycin, C. difficile ATCC BAA-1870
[29] = DIHQ with metronidazole, C. difficile I9
[30] = DIHQ with vancomycin, C. difficile I9

`Oc1c(I)cc(I)c2cccnc12` [DIHQ, 5,7-diiodoquinolin-8-ol] gave an MBC ([1]; read-out: MBC) of 0.5 µg/mL (≈ 1.26 µM), an MIC ([1]; read-out: MIC) of 0.5 µg/mL (≈ 1.26 µM) and an MBC ([2]; read-out: MBC) of 0.5 µg/mL (≈ 1.26 µM). The MIC ([2]; read-out: MIC) was 0.5 µg/mL (≈ 1.26 µM), the “time required to generate a 3-log10 reduction in CFU/mL” value [3] was “six” and the “time to complete eradication of the bacteria (below the detection limit, 100 CFU/mL)” value [3] was no more than 24 h. The “time required to generate a 3-log10 reduction in CFU/mL” value [4] was 4 hours, the “time to complete eradication of the bacteria (below the detection limit, 100 CFU/mL)” value [4] was no more than 6 h and the “MIC of DIHQ combined with metronidazole” value ([5]; C. difficile ATCC 43255) was 0.25 µg/mL. For the same compound, the “MIC of DIHQ combined with vancomycin” value ([5]; C. difficile ATCC 43255) was 0.125 µg/mL, the MIC alone ([5]; C. difficile ATCC 43255, Table 4) was 1 µg/mL and the MIC ([5]; Clostridioides difficile, ATCC43255, C. difficile ATCC 43255, Table 3, read-out: MIC alone) was 1 µg/mL. The Interpretation [5, 25] was “SYN (ΣFIC index ≤0.5 is considered synergistic (SYN))”, the “ΣFIC Index” value [5, 25] was 0.375 and the Interpretation [5, 26] was “SYN (ΣFIC index ≤0.5 is considered synergistic (SYN))”. For the same compound, the “ΣFIC Index” value [5, 26] was 0.25, the “MIC of DIHQ combined with metronidazole” value ([6]; C. difficile ATCC BAA-1870) was 0.125 µg/mL and the “MIC of DIHQ combined with vancomycin” value ([6]; C. difficile ATCC BAA-1870) was 0.06 µg/mL. The MIC alone ([6]; C. difficile ATCC BAA-1870, Table 4) was 1 µg/mL, the MIC ([6]; Clostridioides difficile, ATCCBAA1870, C. difficile ATCC BAA-1870, Table 3, read-out: MIC alone) was 1 µg/mL and the Interpretation [6, 27] was “SYN (ΣFIC index ≤0.5 is considered synergistic (SYN))”. The “ΣFIC Index” value [6, 27] was 0.25, the Interpretation [6, 28] was “SYN (ΣFIC index ≤0.5 is considered synergistic (SYN))” and the “ΣFIC Index” value [6, 28] was 0.185. For the same compound, the “MIC of DIHQ combined with metronidazole” value ([7]; C. difficile I9) was 0.06 µg/mL, the “MIC of DIHQ combined with vancomycin” value ([7]; C. difficile I9) was 0.06 µg/mL and the MIC alone ([7]; C. difficile I9, Table 4) was 0.06 µg/mL. For the same compound, the MIC ([7]; Clostridioides difficile, C. difficile I9, Table 3, read-out: MIC alone) was 0.06 µg/mL, the Interpretation [7, 29] was “ADD (ΣFIC index >0.5 − 1.25 is considered additive (ADD))” and the “ΣFIC Index” value [7, 29] was 1.125. For the same compound, the Interpretation [7, 30] was “ADD (ΣFIC index >0.5 − 1.25 is considered additive (ADD))”, the “ΣFIC Index” value [7, 30] was 1.125 and the “inhibition of total toxin production” value ([8]; C. difficile ATCC 43255, ¼×MIC) was roughly 8%. For the same compound, the “inhibition of total toxin production” value ([8]; C. difficile ATCC 43255, ½×MIC) was roughly 28.5%, the “inhibition of total toxin production” value ([9]; C. difficile ATCC BAA-1870, ¼×MIC) was 17.8% and the “inhibition of total toxin production” value ([9]; C. difficile ATCC BAA-1870, ½×MIC) was 27%. The “inhibition of total toxin production” value ([10]; C. difficile NR-49277, ¼×MIC) was roughly 31.8%, the “inhibition of total toxin production” value ([10]; C. difficile NR-49277, ½×MIC) was roughly 38.9% and the MIC [11] was greater than 128 µg/mL. The MIC [12] was greater than 128 µg/mL, the MIC [13] was greater than 128 µg/mL and the MIC [14] was greater than 128 µg/mL. It also gave an MIC [15] greater than 128 µg/mL, an MIC [16] greater than 128 µg/mL and an MIC [17] greater than 128 µg/mL. It also gave an MIC [18] of 128 µg/mL (≈ 322 µM), an MIC [19] greater than 128 µg/mL and an MIC [20] greater than 128 µg/mL. The MIC [21] was 64 µg/mL (≈ 161 µM), the MIC [22] was 128 µg/mL (≈ 322 µM) and the MIC [23] was 16 µg/mL (≈ 40.3 µM). It also gave an MIC [24] greater than 128 µg/mL and an MIC ([24]; Limosilactobacillus reuteri, HM102, read-out: MIC) greater than 128 µg/mL.
